{"source": "patent US9676763B2", "about": "(priority 2010, dated 2017)", "data": [{"system": "EboV", "values": [{"molecule": "CCCCc1oc2ccccc2c1C(=O)c1cc(I)c(OCCN(CC)CC)c(I)c1", "note": "[amiodarone]", "anti-EboV activity": "weak anti-EboV activity"}, {"molecule": "CCOC(=O)C1=C(COCCN)NC(C)=C(C(=O)OC)C1c1ccccc1Cl", "note": "(stereo not drawn) [amlodipne]", "anti-EboV activity": "weak anti-EboV activity"}, {"molecule": "COc1ccc([C@@H]2Sc3ccccc3N(CCN(C)C)C(=O)[C@@H]2OC(C)=O)cc1", "note": "[diltiazen]", "anti-EboV activity": "weak anti-EboV activity"}]}, {"system": "VSV luc particles bearing the native VSV G glycoprotein", "type": "cell-based, vesicular stomatitis virus", "values": [{"molecule": "CCOc1ccc(S(=O)(=O)N(C)c2ccc(OCC(=O)N(C)C3CCN(C)CC3)cc2)cc1", "note": "[compound 6]", "specificity for EboV GP versus VSV G particles": "EboV specific"}, {"molecule": "Oc1ccc(/C=N/n2c(-c3ccco3)cs/c2=N\\c2ccc(F)cc2F)c(O)c1", "note": "[compound 7]", "specificity for EboV GP versus VSV G particles": "EboV specific"}, {"molecule": "COC(=O)c1ccc(-c2ccco2)n1Cc1cccc(F)c1", "note": "[compound 8]", "specificity for EboV GP versus VSV G particles": "EboV specific"}]}]}
